# Results: ChEMBL document CHEMBL4152377, “Design and Activity of Specific Hypoxia-Inducible Factor-2α (HIF-2α) Inhibitors for the Treatment of Clear Cell Renal Cell Carcinoma: Discovery of Clinical Candidate ( S)-3-((2,2-Difluoro-1-hydroxy-7-(methylsulfonyl)-2,3-dihydro-1 H-inden-4-yl)oxy)-5-fluorobenzonitrile (PT2385)” (J Med Chem, 2018)
# Active and inactive are the calls of the source. No cut-off for these calls is given here.
# Legend:
# [1] = target: T1, Endothelial PAS domain-containing protein 1 (Homo sapiens, UniProt Q99814)
# T1 sequence (Q99814 whole entry, the tested form may be a part): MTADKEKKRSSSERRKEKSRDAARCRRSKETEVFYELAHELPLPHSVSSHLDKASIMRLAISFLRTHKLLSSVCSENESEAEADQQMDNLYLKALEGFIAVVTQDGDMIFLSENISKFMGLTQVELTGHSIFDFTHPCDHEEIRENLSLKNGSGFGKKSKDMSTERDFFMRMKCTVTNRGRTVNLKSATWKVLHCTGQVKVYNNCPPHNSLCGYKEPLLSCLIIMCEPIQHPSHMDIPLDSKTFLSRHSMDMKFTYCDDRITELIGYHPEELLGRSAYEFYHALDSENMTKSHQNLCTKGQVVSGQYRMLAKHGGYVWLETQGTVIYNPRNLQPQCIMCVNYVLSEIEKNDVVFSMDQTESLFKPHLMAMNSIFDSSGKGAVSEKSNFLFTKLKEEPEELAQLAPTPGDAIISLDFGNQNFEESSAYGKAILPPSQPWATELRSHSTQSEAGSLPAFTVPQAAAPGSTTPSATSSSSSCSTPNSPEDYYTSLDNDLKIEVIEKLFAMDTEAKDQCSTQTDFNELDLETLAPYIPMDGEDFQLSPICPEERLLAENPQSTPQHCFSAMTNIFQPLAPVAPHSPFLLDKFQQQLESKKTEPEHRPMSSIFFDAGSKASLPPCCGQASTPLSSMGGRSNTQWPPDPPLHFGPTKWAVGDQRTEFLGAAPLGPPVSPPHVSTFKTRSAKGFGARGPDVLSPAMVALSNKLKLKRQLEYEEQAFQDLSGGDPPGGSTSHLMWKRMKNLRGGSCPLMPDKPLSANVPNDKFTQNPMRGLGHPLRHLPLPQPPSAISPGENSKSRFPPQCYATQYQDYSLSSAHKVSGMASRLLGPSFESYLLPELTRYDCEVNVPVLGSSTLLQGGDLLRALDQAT
# [2] = target: T1, Endothelial PAS domain-containing protein 1; remark: listed apart in the source
# [3] = test system: Mus musculus; test: Minimum drug level in SCID/Biege mouse xenografted with human 786-O cells at 10 mg/kg, po bid for 3 days and measured after 12 hrs post last dose by LC-MS/MS analysis; assay type: ADME, organism-based; conditions: in vivo
# [4] = test system: 786-0; test: Antitumor activity against human 786-O cells xenografted in SCID/Biege mouse assessed as tumor regression at 10 mg/kg, po bid for 21 days; assay type: functional, organism-based
# [5] = test system: Mus musculus; test: In vivo inhibition of HIF-2alpha in SCID/Biege mouse xenografted with human 786-O cells assessed as reduction in VEGFA mRNA levels at 10 mg/kg, po bid for 3 days and measured after 12 hrs post last dose by qRT-PCR analysis; assay type: functional, organism-based
# [6] = Volume of distribution at steady state in Sprague-Dawley rat at 3 mg/kg, iv by UPLC analysis; assay type: ADME, organism-based; conditions: in vivo, read-out: Vdss
# [7] = Half life in Sprague-Dawley rat at 10 mg/kg, po via gavage by UPLC analysis; assay type: ADME, organism-based; conditions: in vivo
# [8] = Apparent permeability across apical to basolateral side in MDCK-MDR1 cells at 1 uM after 1 hr by LC/MS/MS analysis; assay type: ADME, cell-based, Canis lupus familiaris; conditions: dog
# [9] = Oral bioavailability in Sprague-Dawley rat at 10 mg/kg administered via gavage by UPLC analysis; assay type: ADME, organism-based; conditions: in vivo
# [10] = target: T1, Endothelial PAS domain-containing protein 1; test: Antagonist activity at HIF-2alpha in human 786-O cells assessed as free plasma adjusted EC50 for reduction in VEGFA concentration after 24 hrs by ELISA; assay type: cell-based
# [11] = AUCt in CD1 mouse at 10 mg/kg, po by UPLC analysis; assay type: ADME, organism-based; conditions: in vivo
# [12] = Half life in CD1 mouse at 10 mg/kg, po by UPLC analysis; assay type: ADME, organism-based; conditions: in vivo
# [13] = Efflux ratio of apparent permeability in MDCK-MDR1 cells at 1 uM after 1 hr by LC/MS/MS analysis; assay type: ADME, cell-based, Canis lupus familiaris; conditions: dog
# [14] = test system: Mus musculus; test: Toxicity in SCID/Biege mouse xenografted with human 786-O cells assessed as effect on body weight at 10 mg/kg, po bid for 21 days; assay type: organism-based; conditions: in vivo, 504 h
# [15] = Volume of distribution at steady state in CD1 mouse at 3 mg/kg, iv by UPLC analysis; assay type: ADME, organism-based; conditions: in vivo, read-out: Vdss
# [16] = Intrinsic clearance in mouse liver microsomes at 1 uM measured up to 30 mins by LC-MS/MS analysis; assay type: ADME, microsome; conditions: read-out: CLH
# [17] = test system: Mus musculus; test: In vivo inhibition of HIF-2alpha in SCID/Biege mouse xenografted with human 786-O cells assessed as reduction in CCND1 mRNA levels at 10 mg/kg, po bid for 3 days and measured after 12 hrs post last dose by qRT-PCR analysis; assay type: functional, organism-based
# [18] = target: T1, Endothelial PAS domain-containing protein 1; test: Antagonist activity at HIF-2alpha in human 786-O cells assessed as reduction in VEGFA concentration after 24 hrs by ELISA; assay type: cell-based
# [19] = test system: Mus musculus; test: Toxicity in SCID/Biege mouse xenografted with human 786-O cells assessed as morbidity at 10 mg/kg, po bid for 21 days; assay type: organism-based; conditions: in vivo, 504 h
# [20] = Oral bioavailability in CD1 mouse at 10 mg/kg by UPLC analysis; assay type: ADME, organism-based; conditions: in vivo
# [21] = Clearance in Sprague-Dawley rat at 3 mg/kg, iv by UPLC analysis; assay type: ADME, organism-based; conditions: in vivo
# [22] = Clearance in CD1 mouse at 3 mg/kg, iv by UPLC analysis; assay type: ADME, organism-based; conditions: in vivo
# [23] = Protein binding in mouse plasma at 10 uM after 4 hrs by LC-MS/MS analysis; assay type: ADME, cell-free; conditions: read-out: PPB (converted)
# [24] = test system: 786-0; test: In vivo inhibition of HIF-2alpha in SCID/Biege mouse xenografted with human 786-O cells assessed as reduction in tumor derived VEGFA protein levels at 10 mg/kg, po bid for 3 days and measured after 12 hrs post last dose by ELISA; assay type: functional, organism-based
# [25] = Plasma concentration in mouse after 12 hrs; assay type: ADME, cell-free
# [26] = test system: Mus musculus; test: Toxicity in SCID/Biege mouse xenografted with human 786-O cells assessed as mortality at 10 mg/kg, po bid for 21 days; assay type: organism-based; conditions: in vivo, 504 h
# [27] = AUCt in Sprague-Dawley rat at 10 mg/kg, po via gavage by UPLC analysis; assay type: ADME, organism-based; conditions: in vivo
# [28] = test system: Rattus norvegicus; test: Drug level in Sprague-Dawley rat treated with 10 mg/kg, po (R)-3-((4-(Difluoromethyl)-2,2-difluoro-3-hydroxy-1,1-dioxido-2,3-dihydrobenzo[b]thiophen-5-yl)oxy)-5-fluorobenzonitrile assessed as compound formation by UPLC analysis; assay type: ADME, organism-based; conditions: in vivo
structure (smiles),measurement,setting,value
O=[N+]([O-])c1c(Nc2cc(F)cc(Cl)c2)ccc2nonc12,IC50,[1],490 nM
COCc1c(S(=O)(=O)C(F)F)ccc(Oc2cc(F)cc(Cl)c2)c1Cl,IC50,[1],4200 nM
N#Cc1cc(F)cc(Oc2ccc(S(=O)(=O)C(F)F)c(C(=O)O)c2C(F)F)c1,IC50,[1],> 100000 nM
O=[N+]([O-])c1cc(S(=O)(=O)C(F)(F)F)ccc1Oc1cc(F)cc(Cl)c1,IC50,[1],32 nM
O=S1(=O)CCC(O)c2c1ccc(Oc1cc(F)cc(F)c1)c2C(F)F (stereo unspecified),IC50,[1],3200 nM
O=[N+]([O-])c1cc(S(=O)(=O)C(F)F)ccc1Nc1cc(F)cc(Cl)c1,IC50,[1],16 nM
O=S1(=O)c2ccc(Oc3cc(F)cc(Cl)c3)c(Br)c2C(O)C1(F)F (stereo unspecified),EC50,[2],43 nM
same,IC50,[1],< 5 nM
O=S(=O)(c1ccc(Oc2cc(F)cc(Cl)c2)c(CO)c1)C(F)(F)F,IC50,[1],1200 nM
O=S1(=O)CC(O)c2c1ccc(Oc1cc(F)cc(Cl)c1)c2Br (stereo unspecified),EC50,[2],7200 nM
same,IC50,[1],2400 nM
O=S1(=O)c2ccc(Oc3cc(F)cc(Cl)c3)c(C(F)F)c2C(O)C1(F)F (stereo unspecified),EC50,[2],17 nM
O=S(=O)(c1ccc(Oc2cc(F)cc(Cl)c2)c(Br)c1)C(F)F,EC50,[2],2200 nM
same,IC50,[1],180 nM
CC(=O)NCc1c(S(=O)(=O)C(F)F)ccc(Oc2cc(F)cc(Cl)c2)c1Br,IC50,[1],18200 nM
CC(O)c1ccc(Nc2cc(F)cc(Cl)c2)c([N+](=O)[O-])c1 (stereo unspecified),IC50,[1],12700 nM
Cc1c(Oc2cc(F)cc(Cl)c2)ccc2c1C(O)C(F)(F)S2(=O)=O (stereo unspecified),EC50,[2],340 nM
same,IC50,[1],20 nM
O=S(=O)(c1ccc(Oc2cc(F)cc(Cl)c2)c(Br)c1)C(F)(F)F,EC50,[2],3700 nM
same,IC50,[1],170 nM
CC1(C)C(O)c2c(ccc(Oc3cc(F)cc(Cl)c3)c2Br)S1(=O)=O (stereo unspecified),IC50,[1],19600 nM
N#Cc1cc(F)cc(Oc2ccc(S(=O)(=O)CF)c3c2CC(F)(F)[C@H]3O)c1,Drug uptake,[3],Active
same,Activity,[4],Active
same,inhibition,[5],Active
same,Vd,[6],6.15 L/kg
same,half-life,[7],2.9 h
same,"Papp A→B at 1 h, 1 µM",[8],2.73 ×10⁻⁶ cm/s
same,bioavailability,[9],32%
same,EC50,[2],9 nM
same,EC50,[10],182 nM
same,AUC(0-t),[11],9.46 µM·h
same,half-life,[12],5.5 h
same,"efflux ratio at 1 h, 1 µM",[13],1.04
same,Activity,[14],Non-Toxic
same,Vd,[15],12.6 L/kg
same,CLint scaled at 1 µM,[16],26.9 mL/min/kg
same,inhibition,[17],Active
same,EC50,[18],20 nM
same,Activity,[19],Non-Toxic
same,bioavailability,[20],91%
same,clearance,[21],57.6 mL/min/kg
same,clearance,[22],32.3 mL/min/kg
same,"fraction unbound at 4 h, 10 µM",[23],0.11
same,inhibition,[24],Active
same,concentration at 12 h,[25],1100 nM
same,Activity,[26],Non-Toxic
same,AUC(0-t),[27],2.14 µM·h
O=S(=O)(c1ccc(Oc2cc(F)cc(Cl)c2)c2c1C(O)C(F)(F)C2)C(F)F (racemic),EC50,[2],20 nM
same,IC50,[1],< 5 nM
N#Cc1cc(S(=O)(=O)C(F)(F)F)ccc1Oc1cc(F)cc(Cl)c1,EC50,[2],11600 nM
same,IC50,[1],34 nM
CS(=O)(=O)c1ccc(Oc2cc(F)cc(C#N)c2)c2c1C(O)C(F)(F)CC2 (racemic),IC50,[1],3600 nM
O=[N+]([O-])c1cc(C(F)(F)F)ccc1Nc1cc(F)cc(Cl)c1,IC50,[1],280 nM
O=S(=O)(c1ccc(Oc2cc(F)cc(Cl)c2)c(Cl)c1)C(F)(F)F,EC50,[2],3400 nM
same,IC50,[1],140 nM
N#Cc1cncc(Oc2ccc3c(c2C(F)F)C(O)C(F)(F)S3(=O)=O)c1 (stereo unspecified),EC50,[2],180 nM
same,IC50,[1],140 nM
N#Cc1c(Oc2cc(F)cc(Cl)c2)ccc2c1C(O)C(F)(F)S2(=O)=O (stereo unspecified),EC50,[2],9200 nM
same,IC50,[1],49 nM
NCc1c(S(=O)(=O)C(F)F)ccc(Oc2cc(F)cc(Cl)c2)c1Br,IC50,[1],700 nM
COC(=O)c1cc(S(=O)(=O)C(F)(F)F)ccc1Oc1cc(F)cc(Cl)c1,IC50,[1],52900 nM
O=[N+]([O-])c1cc(S(=O)(=O)CF)ccc1Nc1cc(F)cc(Cl)c1,IC50,[1],280 nM
CNS(=O)(=O)c1ccc(Nc2cc(F)cc(Cl)c2)c([N+](=O)[O-])c1,IC50,[1],4200 nM
O=S1(=O)c2ccc(Oc3cc(F)cc(Cl)c3)cc2C(O)C1(F)F (stereo unspecified),IC50,[1],1100 nM
O=S1(=O)c2ccc(Oc3cc(F)cc(Cl)c3)c(C(F)(F)F)c2C(O)C1(F)F (stereo unspecified),EC50,[2],100 nM
N#Cc1cc(F)cc(Oc2ccc(S(=O)(=O)C(F)F)c3c2CC(F)(F)[C@H]3O)c1,Drug uptake,[3],Active
same,Activity,[4],Active
same,inhibition,[5],Active
same,Vd,[6],5.55 L/kg
same,half-life,[7],5.4 h
same,"Papp A→B at 1 h, 1 µM",[8],2.84 ×10⁻⁶ cm/s
same,bioavailability,[9],6%
same,AUC(0-t),[11],7.3 µM·h
same,half-life,[12],7.3 h
same,Activity,[14],Non-Toxic
same,Vd,[15],7.4 L/kg
same,CLint scaled at 1 µM,[16],32.2 mL/min/kg
same,inhibition,[17],Active
same,Activity,[19],Non-Toxic
same,bioavailability,[20],67%
same,clearance,[21],57.7 mL/min/kg
same,clearance,[22],34.3 mL/min/kg
same,"fraction unbound at 4 h, 10 µM",[23],0.06
same,inhibition,[24],Active
same,concentration at 12 h,[25],380 nM
same,Activity,[26],Non-Toxic
same,AUC(0-t),[27],0.39 µM·h
N#Cc1cc(F)cc(Oc2ccc3c(c2C(F)F)C(=O)C(F)(F)S3(=O)=O)c1,Drug uptake,[28],Active
O=C(O)c1cc(S(=O)(=O)C(F)(F)F)ccc1Oc1cc(F)cc(Cl)c1,IC50,[1],44400 nM
O=S1(=O)c2ccc(Oc3cncc(Cl)c3)c(C(F)F)c2C(O)C1(F)F (stereo unspecified),EC50,[2],630 nM
same,IC50,[1],350 nM
NC(=O)c1cc(S(=O)(=O)C(F)(F)F)ccc1Oc1cc(F)cc(Cl)c1,IC50,[1],22600 nM
N#Cc1cc(F)cc(Oc2ccc(S(=O)(=O)C(F)(F)F)c3c2CC(F)(F)[C@H]3O)c1,EC50,[2],< 5 nM
CS(=O)(=O)c1ccc(Oc2cc(F)cc(Cl)c2)c(Br)c1,IC50,[1],4400 nM
O=S(=O)(c1ccc(Oc2cncc(Cl)c2)c2c1[C@H](O)C(F)(F)C2)C(F)F,Drug uptake,[3],Not Active
same,Activity,[4],inactive
same,inhibition,[5],inactive
same,"Papp A→B at 1 h, 1 µM",[8],2.79 ×10⁻⁶ cm/s
same,AUC(0-t),[11],5.44 µM·h
same,half-life,[12],5.3 h
same,Activity,[14],Non-Toxic
same,Vd,[15],25 L/kg
same,CLint scaled at 1 µM,[16],20.1 mL/min/kg
same,inhibition,[17],inactive
same,Activity,[19],Non-Toxic
same,bioavailability,[20],101%
same,clearance,[22],58.2 mL/min/kg
same,"fraction unbound at 4 h, 10 µM",[23],0.06
same,inhibition,[24],inactive
same,concentration at 12 h,[25],560 nM
same,Activity,[26],Non-Toxic
